From PMC6271231 (Molecules, 2014)
Entries after “also recorded” stand apart in the source; their conditions may differ. Like-named read-outs stand apart in the source and are kept apart here.

Columns and labels:
[1] = tested on: IL-6 production in H1N1-infected A549 cells; format: cell-based, human
[2] = tested on: MCP-1 production in H1N1-infected A549 cells; format: cell-based, human
[3] = molecular target: NA of A/Sydney/5/97 (H3N2) (Influenza A virus, UniProt Q9DIC9); assay: Neuraminidase inhibition assay (fluorimetric, MUNANA); format: biochemical, influenza A virus A/Sydney/5/97 (H3N2)
[4] = NA from A/Sydney/5/97 (H3N2), 37 °C, 40 min, pH 6.5, read-out: IC50, inhibition of NA, A/Sydney/5/97(H3N2) (converted)

`O=C(Oc1cc(O)c2c(c1)OC(c1cc(O)c(O)c(O)c1)C(O)C2)c1cc(O)c(O)c(O)c1` (single isomer, unassigned; (+)) [Compound 3, (+)-3,5,3',4',5'-penta-hydroxyflavan-7-gallate] was tested, and the “inhibition of IL-6 expression induced by influenza H1N1 virus (in words)” value [1] was “weakest inhibition; also recorded: worst inhibition”, the “inhibition of MCP-1 expression induced by influenza H1N1 virus (in words)” value (“inhibition of MCP-1 expression induced” below) [2] was “worst inhibition” and the IC50 [3, 4] was > 87.3 µM.
`CC1(C)O[C@@H]2Cc3c(O)cc(OC(=O)c4cc(O)c(O)c(O)c4)cc3O[C@@H]2c2cc(O)c(O)c(O)c21` [Compound 1, (2R,3R)-7-O-galloylplumbocatechin A] was tested, and the “inhibition of MCP-1 expression induced” value [2] was “inhibit MCP-1 expression best at the lowest concentrated dilution of 3 μg/mL; also recorded: best results” and the IC50 [3, 4] was 64.7 µM.
In the case of `CC(=O)N[C@H]1[C@H]([C@H](O)[C@H](O)CO)OC(C(=O)O)=C[C@@H]1N=C(N)N` [zanamivir, reference compound], the IC50 [3] is reported as 0.000632 µM.
In the case of `O=C(Oc1cc(O)c2c(c1)O[C@H](c1cc(O)c(OC(=O)c3cc(O)c(O)c(O)c3)c(O)c1)CC2)c1cc(O)c(O)c(O)c1` [Compound 4, (−)-7,4'-di-O-galloyltricetiflavan], the IC50 [3, 4] is reported as > 67.3 µM.
In the case of `O=C(Oc1cc(O)c2c(c1)O[C@H](c1cc(O)c(O)c(O)c1)CC2)c1cc(O)c(O)c(O)c1` [Compound 2, (−)-5,3',4',5'-tetrahydroxyflavan-7-gallate], the “inhibition of IL-6 expression induced by influenza H1N1 virus (in words)” value [1] is reported as “best inhibitory effect”, the “inhibition of MCP-1 expression induced” value [2] is reported as “inhibit MCP-1 expression best at the lowest concentrated dilution of 3 μg/mL” and the IC50 [3, 4] is reported as > 90.4 µM.
